In US11325919B1, “Synthetic novel pyrroloiminoquinone alkaloid and method of use” (priority 2019, dated 2022):
Entries after “also recorded” stand apart in the source; their conditions may differ.

Tests used:
L1210 = experiment: differential cytotoxicity zone assay, L1210; type: cell-based, murine
Source text: (§1) Discorhabdin A is the precursor to aleutianamine.

Colon 38 = experiment: differential cytotoxicity zone assay, Colon 38; type: cell-based, murine
Source text: as §1

H-116 = experiment: differential cytotoxicity zone assay, H-116; type: cell-based, human
Source text: as §1

H-125 = experiment: differential cytotoxicity zone assay, H-125; type: cell-based
Source text: as §1

MCF-7 = experiment: differential cytotoxicity zone assay, MCF-7; type: cell-based, human
Source text: as §1

LNCaP = experiment: differential cytotoxicity zone assay, LNCaP; type: cell-based, human
Source text: as §1

OVC-5 = experiment: differential cytotoxicity zone assay, OVC-5; type: cell-based
Source text: as §1

U251N = experiment: differential cytotoxicity zone assay, U251N; type: cell-based
Source text: as §1

MDA = experiment: differential cytotoxicity zone assay, MDA; type: cell-based
Source text: as §1

PANC-1 = experiment: differential cytotoxicity zone assay, PANC-1; type: cell-based, human
Source text: as §1

CEM = experiment: differential cytotoxicity zone assay, CEM; type: cell-based, human
Source text: as §1

solid human tumor = solid human tumor model; cited from earlier work
CFU-GM = experiment: differential cytotoxicity zone assay, CFU-GM; type: cell-based
Source text: as §1

topoisomerase II = details: cited from earlier work
[1] = system: human HCT-116 colon cancer cells; experiment: cytotoxicity IC50, HCT-116 colon cancer cells; type: cell-based
[2] = system: PANC-1 pancreatic cancer cells; experiment: cytotoxicity IC50, PANC-1 pancreatic cancer cells; type: cell-based; details: Homo sapiens; pancreatic cancer (PANC-1)
HCT-116 cells = experiment: clonogenic studies, concentration-survival as function of exposure time; type: cell-based, human
Description: Clonogenic studies were carried out using HCT-116 cells to define the concentration-survival relationship as a function of exposure time.^26 The endpoint used, tS10 (10% survival of clonogenic cells for exposure time t) provides information essential for future preclinical therapeutic studies. These clonogenic studies based on formula II yielded a 2S10 value of >5 μM; a 24S10 value of 0.75 μM; and a 168S10 value of 0.1 μM. […] Compounds shown in Formula I are simple modifications and bio-isosteres and would have similar activity to the compound of formula II.

[3] = system: solid tumor cell lines compared to murine and human leukemia cells; experiment: differential cytotoxicity zone assay, solid tumor selectivity versus leukemia cells; type: cell-based
Source text: as §1

karlotoxin 2
zones of inhibition (L1210; Conc. 2 mg/ml): 150 mm
zones of inhibition (Colon 38; Conc. 2 mg/ml): 200 mm
zones of inhibition (H-116; Conc. 2 mg/ml): 200 mm
zones of inhibition (H-125; Conc. 2 mg/ml): 100 mm
zones of inhibition (MCF-7; Conc. 2 mg/ml): 200 mm
zones of inhibition (LNCaP; Conc. 2 mg/ml): 400 mm
zones of inhibition (OVC-5; Conc. 2 mg/ml): 200 mm
zones of inhibition (U251N; Conc. 2 mg/ml): 150 mm
zones of inhibition (MDA; Conc. 2 mg/ml): 200 mm
zones of inhibition (PANC-1; Conc. 2 mg/ml): 200 mm
zones of inhibition (CEM; Conc. 2 mg/ml): 100 mm

Cn1cc2c3c1C(=O)C(N)=CC3=NCC2 [Makaluvamine A]
tumor size (solid human tumor): decrease tumor size

C[N+]1=C2C=C(N)C(=O)c3[nH]cc(c32)CC1.[Cl-] [Makaluvamine C]
tumor size (solid human tumor): decrease tumor size

O=C1CC2SC3C[C@]2(C=C1Br)C1=C(N3)C(=O)c2[nH]cc3c2C1=NCC3 (stereo partly drawn) [Discorhabdin A, discorhabdin A]
zones of inhibition (L1210; Conc. 2 mg/ml): 1000 mm
zones of inhibition (L1210; Conc. 1/16): 250 mm
zones of inhibition (L1210; Conc. ¼): 300 mm
zones of inhibition (Colon 38; Conc. 2 mg/ml): 750 mm
zones of inhibition (Colon 38; Conc. 1/16): 700 mm
zones of inhibition (Colon 38; Conc. ¼): 800 mm
zones of inhibition (CFU-GM; Conc. 1/16): 300 mm
zones of inhibition (CFU-GM; Conc. ¼): >1000 mm
zones of inhibition (H-116; Conc. 2 mg/ml): >1000 mm
zones of inhibition (H-116; Conc. 1/16): 500 mm
zones of inhibition (H-116; Conc. ¼): 900 mm
zones of inhibition (H-125; Conc. 1/16): 750 mm
zones of inhibition (H-125; Conc. 1/64): 400 mm
zones of inhibition (H-125; Conc. ¼): 950 mm
zones of inhibition (MCF-7; Conc. 1/16): 600 mm
zones of inhibition (MCF-7; Conc. 1/64): 350 mm
zones of inhibition (MCF-7; Conc. ¼): 800 mm
zones of inhibition (LNCaP; Conc. 1/16): 500 mm
zones of inhibition (LNCaP; Conc. 1/64): 250 mm
zones of inhibition (OVC-5; Conc. 1/16): 500 mm
zones of inhibition (OVC-5; Conc. 1/64): 200 mm
zones of inhibition (OVC-5; Conc. ¼): 700 mm
zones of inhibition (U251N; Conc. 1/16): 300 mm
zones of inhibition (U251N; Conc. 1/64): 200 mm
zones of inhibition (U251N; Conc. ¼): 300 mm
zones of inhibition (MDA; Conc. 1/16): 500 mm
zones of inhibition (MDA; Conc. 1/64): 300 mm
zones of inhibition (MDA; Conc. ¼): 1000 mm
zones of inhibition (PANC-1; Conc. 1/16): 150 mm
zones of inhibition (PANC-1; Conc. 1/64): 100 mm
zones of inhibition (PANC-1; Conc. ¼): 450 mm
zones of inhibition (CEM; Conc. 1/16): 100 mm
zones of inhibition (CEM; Conc. 1/64): 50 mm
zones of inhibition (CEM; Conc. ¼): 450 mm
inhibition of topoisomerase II (topoisomerase II): no inhibition

C[C@H]([C@H](O)CCC(C)(C)O)[C@H]1CC[C@@]2(O)C3=CC(=O)[C@@H]4C[C@@H](O)[C@@H](O)C[C@]4(C)[C@H]3CC[C@]12C [Ecdysone]
zones of inhibition (L1210; Conc. 2 mg/ml): 0 mm
zones of inhibition (Colon 38; Conc. 2 mg/ml): 0 mm
zones of inhibition (H-116; Conc. 2 mg/ml): 0 mm
zones of inhibition (H-125; Conc. 2 mg/ml): 0 mm
zones of inhibition (MCF-7; Conc. 2 mg/ml): 0 mm
zones of inhibition (LNCaP; Conc. 2 mg/ml): 0 mm
zones of inhibition (OVC-5; Conc. 2 mg/ml): 0 mm
zones of inhibition (U251N; Conc. 2 mg/ml): 0 mm
zones of inhibition (MDA; Conc. 2 mg/ml): 0 mm
zones of inhibition (PANC-1; Conc. 2 mg/ml): 0 mm

O=C1C2=C3C4=[N+](CCc5c[nH]c1c54)[C@@H]1C[C@]34S[C@@H](C=C4C=C1Br)N2 [Aleutianamine]
zones of inhibition (L1210; Conc. 2 mg/ml): 950 mm
zones of inhibition (L1210; Conc. 1/16): 500 mm
zones of inhibition (L1210; Conc. 1/64): 250 mm
zones of inhibition (L1210; Conc. ¼): 700 mm
zones of inhibition (Colon 38; Conc. 2 mg/ml): >1000 mm
zones of inhibition (Colon 38; Conc. 1/16): 900 mm
zones of inhibition (Colon 38; Conc. 1/64): 450 mm
zones of inhibition (Colon 38; Conc. ¼): >1000 mm
zones of inhibition (CFU-GM; Conc. 1/16): >1000 mm
zones of inhibition (CFU-GM; Conc. 1/64): 750 mm
zones of inhibition (CFU-GM; Conc. ¼): >1000 mm
zones of inhibition (H-116; Conc. 2 mg/ml): >1000 mm
zones of inhibition (H-116; Conc. 1/16): 600 mm
zones of inhibition (H-116; Conc. 1/64): 250 mm
zones of inhibition (H-116; Conc. ¼): 950 mm
zones of inhibition (H-125; Conc. 1/16): 900 mm
zones of inhibition (H-125; Conc. 1/64): 400 mm
zones of inhibition (H-125; Conc. ¼): >1000 mm
zones of inhibition (MCF-7; Conc. 1/16): >1000 mm
zones of inhibition (MCF-7; Conc. 1/64): 600 mm
zones of inhibition (MCF-7; Conc. ¼): >1000 mm
zones of inhibition (LNCaP; Conc. 1/16): 1000 mm
zones of inhibition (LNCaP; Conc. 1/64): 500 mm
zones of inhibition (OVC-5; Conc. 1/16): 700 mm
zones of inhibition (OVC-5; Conc. 1/64): 350 mm
zones of inhibition (OVC-5; Conc. ¼): 900 mm
zones of inhibition (U251N; Conc. 1/16): 850 mm
zones of inhibition (U251N; Conc. 1/64): 700 mm
zones of inhibition (U251N; Conc. ¼): >1000 mm
zones of inhibition (MDA; Conc. 1/16): 800 mm
zones of inhibition (MDA; Conc. 1/64): 500 mm
zones of inhibition (MDA; Conc. ¼): >1000 mm
zones of inhibition (PANC-1; Conc. 1/16): >1000 mm
zones of inhibition (PANC-1; Conc. 1/64): 650 mm
zones of inhibition (CEM; Conc. 1/16): 750 mm
zones of inhibition (CEM; Conc. 1/64): 350 mm
zones of inhibition (CEM; Conc. ¼): 900 mm
IC50 ([1]; colon cancer (H116)): 1000 nM
IC50 ([1]; colon cancer (H116 / HCT-116)): 1000 nM
IC50 [2]: 25 nM
2S10 (10% survival of clonogenic cells for exposure time t) (HCT-116 cells; exposure time 2): > 5 µM
24S10 (10% survival of clonogenic cells for exposure time t) (HCT-116 cells; exposure time 24): 0.75 µM
168S10 (10% survival of clonogenic cells for exposure time t) (HCT-116 cells; exposure time 168): 0.1 µM
selectivity of cell killing [3]: solid tumor selectivity; also recorded: highly potent and selective for pancreatic and breast cancer as well as gliobastoma
